Experiment [1] relates to spleen-sorted Cd3+ T cells (donor). The experiment can be described thus: PCR assay for TCR-β rearrangement in donor T cells of primary transplant. The format is in vivo, mouse. As to conditions: primary transplant of treated E11.5 AGM; Mac1+ myeloid cells negative control. How it is done:
(§1) Pulsating blood vessels like conditions were stimulated in vitro using FLEXCELL FX-4000 cell stretching bioreactor machine. To analyze roles of pharmacological targets in regulating the endothelial-to-HSC transition, mouse embryo-derived AGM or whole mouse embryo were exposed ex vivo with biomechanical stretching, chemicals, or drugs. Next, hematopoietic colony formation assays were performed by incubating mouse AGM-derived cells in StemCell M3434 media for seven days. Serial transplantation of AGM-derived HSCs in lethally irradiated SJL mice were performed. The stem cell frequency upon biomechanical stretching was analyzed using a limiting dilution assay. To characterize properties of AGM-HSC-derived blood cells in primary transplants, percentage chimerism and reconstitution was measured using FACS, globin transcripts were analyzed using quantitative reverse transcriptase-PCR, myeloperoxidase amount was measured using PICOKINE ELISA kit, TCR-β rearrangement was analyzed using PCR for TCR-β locus, pre-immune IG detection was analyzed using Thermo-Fisher Mouse Ig Isotyping kit, and delayed-type hypersensitivity was analyzed by injecting sheep RBC (Rockland Immunochemicals) in the footpad of pre-sensitized mice.
T cells (Cd45.2^+, Cd3^+) and myeloid cells (Cd45.2^+, Mac1^+) were FACS sorted from the splenocytes of 16 week-primary transplanted mice. […]

Experiment [2] relates to primary transplant (recipient) mice. The experiment can be described thus: Delayed-type hypersensitivity assay in primary transplant mice. The format is in vivo, mouse. As to conditions: primary transplant of treated E11.5 AGM. How it is done:
as §1, with “mice. […]” for “mice.”

As to `Clc1cccc(Cl)c1CSc1nnc(-c2cnccn2)s1` [Yoda1, 2-[5-[[(2,6-Dichlorophenyl)methyl]thio]-1,3,4-thiadiazol-2-yl]-pyrazine], the “T-cell receptor β (TCRβ) locus rearrangement in donor T-cells” value in experiment [1] is “display T-cell receptor β (TCR β) rearrangement”. The “T-cell mediated immune response (footpad, sheep RBC challenge)” value in experiment [2] is listed as “possess T-cell mediated immune response”.
